According to patent US8598365B2, “Herbicides” (Syngenta Limited, priority 2007, dated 2013):

Tests used:
Assay type in all cases: in vivo
[1] = system: Alopecurus myosuroides (ALOMY); experiment: Example B pre-emergence herbicidal activity; settings: 312 h, evaluated after 13 days, read-out: Pre-Emergence Activity ALOMY (100=total damage to plant; 0=no damage to plant); for pest or weed control at 250 g/ha: rate 250 g/ha
Outline: (§1)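 Glasshouse pot test, 24/16 °C, 14 h light, 65% RH, watered twice daily. Spray timing: day 1 pre-em., day 8 post-em.; vehicle acetone/water 50:50 + 0.5% Tween 20. Readout 13 d, 0–100% damage.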

[2] = system: Amaranthus retoflexus (AMARE); experiment: Example B pre-emergence herbicidal activity; settings: Amaranthus retroflexus, 312 h, evaluated after 13 days, read-out: Pre-Emergence Activity AMARE (100=total damage to plant; 0=no damage to plant); for pest or weed control at 250 g/ha: rate 250 g/ha
Outline: as §1

Avena fatua (AVEFA) [3] = experiment: Example B pre-emergence herbicidal activity; settings: 312 h, evaluated after 13 days, read-out: Pre-Emergence Activity AVEFA (100=total damage to plant; 0=no damage to plant); for pest or weed control at 250 g/ha: rate 250 g/ha
Outline: as §1

[4] = system: Echinochloa crus-galli (ECHCG); experiment: Example B pre-emergence herbicidal activity; settings: 312 h, evaluated after 13 days, read-out: Pre-Emergence Activity ECHCG (100=total damage to plant; 0=no damage to plant); for pest or weed control at 250 g/ha: rate 250 g/ha
Outline: as §1

Setaria faberi (SETFA) [5] = experiment: Example B pre-emergence herbicidal activity; settings: 312 h, evaluated after 13 days, read-out: Pre-Emergence Activity SETFA (100=total damage to plant; 0=no damage to plant); for pest or weed control at 250 g/ha: rate 250 g/ha
Outline: as §1

[6] = system: Alopecurus myosuroides (ALOMY); experiment: Example B post-emergence herbicidal activity; settings: 312 h, evaluated after 13 days, read-out: Post-emergence activity ALOMY (100=total damage to plant; 0=no damage to plant); for pest or weed control at 250 g/ha: rate 250 g/ha
Outline: as §1

[7] = system: Amaranthus retoflexus (AMARE); experiment: Example B post-emergence herbicidal activity; settings: Amaranthus retroflexus, 312 h, evaluated after 13 days, read-out: Post-emergence activity AMARE (100=total damage to plant; 0=no damage to plant); for pest or weed control at 250 g/ha: rate 250 g/ha
Outline: as §1

Avena fatua (AVEFA) [8] = experiment: Example B post-emergence herbicidal activity; settings: 312 h, evaluated after 13 days, read-out: Post-emergence activity AVEFA (100=total damage to plant; 0=no damage to plant); for pest or weed control at 250 g/ha: rate 250 g/ha
Outline: as §1

[9] = system: Echinochloa crus-galli (ECHCG); experiment: Example B post-emergence herbicidal activity; settings: 312 h, evaluated after 13 days, read-out: Post-emergence activity ECHCG (100=total damage to plant; 0=no damage to plant); for pest or weed control at 250 g/ha: rate 250 g/ha
Outline: as §1

Setaria faberi (SETFA) [10] = experiment: Example B post-emergence herbicidal activity; settings: 312 h, evaluated after 13 days, read-out: Post-emergence activity SETFA (100=total damage to plant; 0=no damage to plant); for pest or weed control at 250 g/ha: rate 250 g/ha
Outline: as §1

| Structure (SMILES) | pest or weed control at 250 g/ha [1] [%] | pest or weed control at 250 g/ha [2] [%] | pest or weed control at 250 g/ha (Avena fatua (AVEFA) [3]) [%] | pest or weed control at 250 g/ha [4] [%] | pest or weed control at 250 g/ha (Setaria faberi (SETFA) [5]) [%] | pest or weed control at 250 g/ha [6] [%] | pest or weed control at 250 g/ha [7] [%] | pest or weed control at 250 g/ha (Avena fatua (AVEFA) [8]) [%] | pest or weed control at 250 g/ha [9] [%] | pest or weed control at 250 g/ha (Setaria faberi (SETFA) [10]) [%] | pest or weed control at 1000 g/ha ([1]; rate 1000 g/ha) [%] | pest or weed control at 1000 g/ha ([2]; rate 1000 g/ha) [%] | pest or weed control at 1000 g/ha (Avena fatua (AVEFA) [3]; rate 1000 g/ha) [%] | pest or weed control at 1000 g/ha ([4]; rate 1000 g/ha) [%] | pest or weed control at 1000 g/ha (Setaria faberi (SETFA) [5]; rate 1000 g/ha) [%] | pest or weed control at 1000 g/ha ([6]; rate 1000 g/ha) [%] | pest or weed control at 1000 g/ha ([7]; rate 1000 g/ha) [%] | pest or weed control at 1000 g/ha (Avena fatua (AVEFA) [8]; rate 1000 g/ha) [%] | pest or weed control at 1000 g/ha ([9]; rate 1000 g/ha) [%] | pest or weed control at 1000 g/ha (Setaria faberi (SETFA) [10]; rate 1000 g/ha) [%] |
| --- | --- | --- | --- | --- | --- | --- | --- | --- | --- | --- | --- | --- | --- | --- | --- | --- | --- | --- | --- | --- |
| CCc1sc(-c2ccc(Cl)cc2)nc1C1=C(OC(=O)C2CC2)C2CCC(C2)C1=O (centres unmarked) [Compound P1] | 80 | 0 | 0 | 100 | 100 | 100 | 0 | 100 | 100 | 100 |  |  |  |  |  |  |  |  |  |  |
| CCc1sc(-c2ccc(Cl)cc2)nc1C1=C(OC(=O)C(C)(C)C)C2CCC(C2)C1=O (centres unmarked) [Compound P2, 2,2-dimethylpropionic acid 3-[2-(4-chloro-phenyl)-5-ethylthiazol-4-yl]-4-oxobicyclo[3.2.1]oct-2-en-2-yl ester] | 80 | 0 | 40 | 100 | 100 | 100 | 0 | 100 | 100 | 100 |  |  |  |  |  |  |  |  |  |  |
| CCc1sc(-c2cc(F)c(Cl)cc2Cl)nc1C1C(=O)[C@@H]2CC[C@@H](C2)C1=O (some centres unmarked) [Compound T53] | 90 | 0 | 80 | 100 | 100 | 100 | 0 | 100 | 100 | 100 |  |  |  |  |  |  |  |  |  |  |
| Cc1sc(-c2ccc([S+](C)[O-])cc2)nc1C1C(=O)[C@@H]2CC[C@@H](C2)C1=O (some centres unmarked) [Compound T82] | 0 | 0 | 0 | 40 | 80 | 20 | 30 | 0 | 100 | 100 |  |  |  |  |  |  |  |  |  |  |
| CCc1sc(-c2ccc(SC)cc2)nc1C1C(=O)[C@@H]2CC[C@@H](C2)C1=O (some centres unmarked) [Compound T83] | 50 | 0 | 0 | 100 | 90 | 60 | 0 | 100 | 100 | 100 |  |  |  |  |  |  |  |  |  |  |
| Cc1sc(-c2ccc(Br)cn2)nc1C1=C(OC(=O)C(C)(C)C)[C@@H]2CC[C@@H](C2)C1=O [Compound P8] | 20 | 0 | 0 | 50 | 100 | 70 | 0 | 80 | 0 | 100 |  |  |  |  |  |  |  |  |  |  |
| CCc1sc(-c2ccc(C)cc2)nc1C1=C(OC(C)=O)[C@H]2CC[C@H](C2)C1=O [Compound P15] | 90 | 0 | 60 | 100 | 90 | 100 | 0 | 90 | 100 | 100 |  |  |  |  |  |  |  |  |  |  |
| Cc1sc(-c2ccc(Br)cn2)nc1C1C(=O)[C@@H]2CC[C@@H](C2)C1=O (some centres unmarked) [Compound T35] | 30 | 0 | 0 | 90 | 100 | 100 | 0 | 80 | 100 | 100 |  |  |  |  |  |  |  |  |  |  |
| Cc1cc(Br)ccc1-c1nc(C2C(=O)[C@@H]3CC[C@@H](C3)C2=O)c(C)s1 (some centres unmarked) [Compound T37] | 30 | 0 | 30 | 60 | 90 | 100 | 0 | 90 | 100 | 100 |  |  |  |  |  |  |  |  |  |  |
| CC(=O)OC1=C(c2nc(-c3ccc(Cl)cc3)ncc2C)C(=O)[C@H]2CC[C@@H]1C2 [Compound P18] | 20 | 0 | 0 | 70 | 60 | 10 | 40 | 0 | 80 | 90 |  |  |  |  |  |  |  |  |  |  |
| O=C1C(c2nc(-c3ccc(Br)cc3)sc2CC(F)(F)F)C(=O)[C@H]2CC[C@@H]1C2 (some centres unmarked) [Compound T40] | 100 | 0 | 100 | 100 | 100 | 100 | 0 | 100 | 100 | 100 |  |  |  |  |  |  |  |  |  |  |
| CCc1sc(-c2ccc(Cl)cc2)nc1C1=C(OC(=C(C#N)C#N)C(F)(F)F)[C@@H]2CC[C@@H](C2)C1=O [Compound P9] | 90 | 0 | 100 | 90 | 100 | 100 | 0 | 100 | 100 | 100 |  |  |  |  |  |  |  |  |  |  |
| CCc1sc(-c2ccc3ccccc3c2)nc1C1C(=O)[C@@H]2CC[C@@H](C2)C1=O (some centres unmarked) [Compound T99] | 50 | 20 | 30 | 60 | 60 | 100 | 0 | 100 | 100 | 100 |  |  |  |  |  |  |  |  |  |  |
| Cc1cc(Cl)ccc1-c1nc(C2C(=O)[C@@H]3CC[C@@H](C3)C2=O)c(C)s1 (some centres unmarked) [Compound T14] |  |  |  |  |  |  |  |  |  |  | 30 | 0 | 80 | 90 | 70 | 90 | 20 | 90 | 100 | 100 |
